Among the data in PubChem BioAssay (NCI) are GI50 and TGI values, retold here.

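Five concentrations, 48 hours, 96-well plates. Abbreviation: GI50, concentration required for 50% inhibition of growth. TGI is the concentration that stops growth completely.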

Test systems include SW-620 colon; RXF 393 renal; HCT-116 colon; HOP-62 NSCLC; LOX IMVI melanoma; NCI-H226 lung; SF-539 CNS; NCI-H23 lung; MALME-3M melanoma.
What all share (assay): growth of human tumour cells (NCI), 48 h

As to `c1ccc(COc2ccc(Nc3ncnc4ccc(-c5ccco5)cc34)cc2)cc1`, the GI50 with SW-620 colon is 7.47 µM; with RXF 393 renal it was 3.4 µM; in the assay with HCT-116 colon, 4.93 µM; with HOP-62 NSCLC, 5.85 µM; in the assay with LOX IMVI melanoma, 4.36 µM; with NCI-H226 lung, 5.73 µM. The values for the GI50 with SF-539 CNS, in the assay on NCI-H23 lung and in the assay on MALME-3M melanoma were 8.83 µM, 5.54 µM and 6.04 µM, respectively. For the same compound, the TGI in the assay with SW-620 colon is 22.7 µM; in the assay on RXF 393 renal, 8.61 µM; in the assay on HCT-116 colon, 12.4 µM; in the assay on HOP-62 NSCLC it was 16 µM; with LOX IMVI melanoma it was 8.96 µM; in the assay with NCI-H226 lung, above 21.5 µM. Also, the figures for the TGI in the assay with SF-539 CNS, in the assay on NCI-H23 lung and in the assay with MALME-3M melanoma were above 25 µM, above 17.9 µM and above 21.1 µM, respectively.
For `Cn1cc(-c2ccc3c(c2)ncn3-c2ccc(CC(=O)Nc3cc(C(C)(C)C)on3)cc2)cn1`, the GI50 is 2.44 µM in the assay on SW-620 colon; 0.173 µM in the assay with RXF 393 renal; 1.89 µM with HCT-116 colon; 1.41 µM in the assay with HOP-62 NSCLC; 0.732 µM with LOX IMVI melanoma; 0.173 µM in the assay on NCI-H226 lung. In addition, the values for the GI50 with SF-539 CNS, in the assay on NCI-H23 lung and in the assay on MALME-3M melanoma were 0.175 µM, 1.88 µM and 1.29 µM, respectively. For the same compound, the TGI is above 100 µM in the assay on SW-620 colon; 0.908 µM in the assay on RXF 393 renal; 7.43 µM with HCT-116 colon; 29.4 µM in the assay with HOP-62 NSCLC; 4.87 µM in the assay with LOX IMVI melanoma; 3.27 µM with NCI-H226 lung. The TGI with SF-539 CNS worked out at 1.74 µM; in the assay with NCI-H23 lung, 17.2 µM; in the assay with MALME-3M melanoma it was 12.6 µM.
On to `CCN=C(N)CSS(=O)(=O)O`, for which the TGI in the assay on SW-620 colon, with RXF 393 renal, in the assay with HCT-116 colon, with HOP-62 NSCLC, in the assay with LOX IMVI melanoma and in the assay on NCI-H226 lung was above 100 µM in each case. The TGI with SF-539 CNS, in the assay on NCI-H23 lung and in the assay on MALME-3M melanoma was above 100 µM in each case.
`CCN1C(=O)N(CC)C2C1NN=c1s/c(=C\c3ccc([N+](=O)[O-])cc3)c(=O)n12` (stereo unspecified): the GI50 with SW-620 colon is 0.379 µM; with RXF 393 renal it was 0.451 µM; in the assay on HCT-116 colon it was 0.427 µM; with HOP-62 NSCLC it was 0.731 µM; in the assay on LOX IMVI melanoma, 0.507 µM; in the assay with NCI-H226 lung, 2.16 µM. For the same compound, the GI50 is 0.338 µM in the assay with SF-539 CNS, 1.11 µM in the assay on NCI-H23 lung and 0.587 µM in the assay with MALME-3M melanoma. Also, the TGI in the assay on SW-620 colon was above 100 µM; in the assay on HCT-116 colon it was above 100 µM; in the assay with HOP-62 NSCLC, above 59.8 µM; in the assay on LOX IMVI melanoma, above 100 µM; in the assay with NCI-H226 lung, above 71 µM; in the assay with SF-539 CNS, 2.83 µM. The TGI in the assay with NCI-H23 lung and in the assay with MALME-3M melanoma was above 100 µM throughout.
As to `NCCCNCCCNc1nc2ccccc2c2[nH]c3ccccc3c12`, the GI50 was 0.19 µM in the assay with SW-620 colon; 0.313 µM with RXF 393 renal; 0.091 µM in the assay on HCT-116 colon; 0.0632 µM with HOP-62 NSCLC; 0.0363 µM in the assay on LOX IMVI melanoma; 0.125 µM with NCI-H226 lung. Further, the GI50 is 0.156 µM with SF-539 CNS, 0.0936 µM in the assay with NCI-H23 lung and 1 µM with MALME-3M melanoma. Also, the TGI with SW-620 colon is 1.64 µM; in the assay with RXF 393 renal it was 2.13 µM; in the assay with HCT-116 colon, 1.87 µM; in the assay with HOP-62 NSCLC, 1.18 µM; with LOX IMVI melanoma it was 1.12 µM; in the assay with NCI-H226 lung, 1.6 µM. In addition, the TGI was determined as 1.55 µM with SF-539 CNS, 1.06 µM in the assay with NCI-H23 lung and 2.74 µM with MALME-3M melanoma.
Consider `C=C(CNCCc1ccc(O)cc1)[C@@H]1CC[C@]2(CO)CC[C@]3(C)[C@H](CC[C@@H]4[C@@]5(C)CCC(NCCO)C(C)(C)[C@@H]5CC[C@]43C)[C@@H]12` (stereo partly specified), for which the GI50 in the assay on SW-620 colon was 1.27 µM; in the assay on RXF 393 renal, 1.27 µM; in the assay with HCT-116 colon, 0.351 µM; in the assay with HOP-62 NSCLC, 1.64 µM; in the assay on LOX IMVI melanoma it was 1.39 µM; in the assay with NCI-H226 lung, 2 µM. The figures for the GI50 in the assay on SF-539 CNS, in the assay on NCI-H23 lung and in the assay on MALME-3M melanoma were 1.5 µM, 1.78 µM and 1.54 µM, respectively. Further, the TGI came to 2.68 µM with SW-620 colon; 2.63 µM in the assay with RXF 393 renal; 1.19 µM in the assay on HCT-116 colon; 3.23 µM with HOP-62 NSCLC; 2.88 µM in the assay on LOX IMVI melanoma; 4.31 µM in the assay with NCI-H226 lung. In addition, the results for the TGI in the assay on SF-539 CNS, in the assay with NCI-H23 lung and in the assay on MALME-3M melanoma were 2.87 µM, 3.49 µM and 3.08 µM, respectively.
Take `CCOC(=O)/C(=C/c1c(-c2ccccc2)[nH]c2ccccc12)C(=O)c1ccc(Cl)cc1`: the GI50 in the assay on SW-620 colon is 4.53 µM; in the assay on RXF 393 renal, 17.4 µM; in the assay on HCT-116 colon it was 2.76 µM; in the assay with HOP-62 NSCLC, 4.59 µM; with LOX IMVI melanoma it was 3.64 µM; with NCI-H226 lung it was 5.6 µM. Further, the GI50 in the assay with SF-539 CNS was 4.23 µM; with NCI-H23 lung, 3.47 µM; in the assay with MALME-3M melanoma it was 3.09 µM. In addition, the TGI in the assay on SW-620 colon, in the assay on RXF 393 renal, in the assay on HCT-116 colon, in the assay with HOP-62 NSCLC, in the assay with LOX IMVI melanoma and in the assay with NCI-H226 lung was above 100 µM in each case. Also, the TGI with SF-539 CNS, in the assay on NCI-H23 lung and in the assay on MALME-3M melanoma was above 100 µM each time.
On to `CN(C)c1ccc(N=C(C#N)c2nc(N)nc(N3CCOCC3)n2)cc1`, for which the GI50 is above 100 µM with SW-620 colon; 27.5 µM with RXF 393 renal; 55.2 µM in the assay with HOP-62 NSCLC; 22.1 µM with LOX IMVI melanoma; above 100 µM in the assay with NCI-H226 lung; 21.4 µM with SF-539 CNS. Moreover, the GI50 was above 100 µM in the assay on NCI-H23 lung and 16.4 µM in the assay with MALME-3M melanoma. Besides, the TGI is above 100 µM in the assay with SW-620 colon; 70.1 µM with RXF 393 renal; above 100 µM with HOP-62 NSCLC; 53.5 µM with LOX IMVI melanoma; above 100 µM with NCI-H226 lung; 46.1 µM with SF-539 CNS. Further, the TGI in the assay on NCI-H23 lung is above 100 µM; with MALME-3M melanoma, 49.4 µM.
As for `COC(=O)Oc1nn(C(=O)OC)c(=O)c2ccccc12` (tested in a mixture with another compound), the TGI in the assay on SW-620 colon, in the assay on RXF 393 renal, with HCT-116 colon, in the assay with HOP-62 NSCLC, in the assay with LOX IMVI melanoma and in the assay on NCI-H226 lung was above 100 µM throughout. The TGI in the assay on SF-539 CNS, with NCI-H23 lung and with MALME-3M melanoma was above 100 µM each time.
